Test results reported in a melting point compilation (Tetko et al.).

Row | Structure (SMILES) | melting point [°C]
1 | O=C(CCl)c1ccc(Oc2ccccc2)cc1 | 54 to 56
2 | O=C(O)C1CCCN1C(=O)c1ccccc1O (stereo not drawn) | 134 to 136
3 | CCOc1cccc2c1C(=O)NC2=O | 149 to 151
4 | O=C(O)C1CSCN1C(=O)c1c[nH]c2ccccc12 (stereo not drawn) | 159 to 161
5 | O=c1[nH]cc(S(=O)(=O)Cl)c(=O)[nH]1 | 155 to 157
6 | CCCN(CCC)C(=O)C1C2C=CC(C2)C1C(=O)O (stereo not drawn) | 113 to 115
7 | O=[N+]([O-])c1cnc2c(c1)CCC2 | 85 to 87
8 | O=C(O)CNS(=O)(=O)c1ccc2c(c1)COC2 | 219 to 221
9 | O=C(O)c1cc(-c2ccc(Cl)s2)on1 | 169 to 171
10 | CC(=O)Nc1c(C)cc(N)cc1C | 204 to 206
11 | CC(C)(C)C(O)CN (stereo not drawn) | 64 to 66
12 | COC(=O)c1ccc(F)cc1N | 62 to 64
13 | O=C(O)c1cc2c(cc1O)CCCC2 | 170 to 172
14 | COc1ccccc1-n1cc(-c2ccc(Cl)cc2Cl)nc1S | 244 to 246
15 | FC(F)(F)c1ccc2nnc(S)n2c1 | 120 to 122
16 | NNC(=O)CC1CCCC1 | 82 to 84
17 | O=C(O)CCNC(=O)c1ccc2[nH]ncc2c1 | 240 to 242
18 | O=C(CCl)Nc1ccccc1I | 38 to 40
19 | CC1=C(C(=O)O)C(=O)OC1(C)C | 111 to 113
20 | O=Cc1cc(Cl)cc2cccnc12 | 155 to 157
21 | NNC(=O)CCc1cccnc1 | 92 to 94
22 | O=S(=O)(Nc1ccc(O)cc1)c1ccccc1 | 156 to 158
23 | CC(C)(C)CCS(=O)(=O)Cl | 33 to 35
24 | NC(Cc1cccnc1)=NO | 149 to 151
25 | Cc1cc(F)ccc1-n1cc(C(=O)O)nn1 | 129 to 131

Row | Structure (SMILES) | melting point [°C]
26 | Cc1nc(-c2ccc(Br)cc2)sc1C(C)O (stereo not drawn) | 119 to 121
27 | COc1cc(C(=O)O)ccc1OCc1ccc(Br)s1 | 179 to 181
28 | Nc1nc2c(OCC(F)(F)F)cccc2s1 | 170 to 172
29 | O=C(O)c1c[nH]cc1-c1ccc(F)cc1 | 199 to 201
30 | CC1CC(C)CN(S(=O)(=O)c2ccc(NN)nc2)C1 (stereo not drawn) | 217 to 219
31 | Nc1ccccc1-n1cnnn1 | 84 to 86
32 | NC(=S)C1CCCC1 | 84 to 86
33 | O=C(O)c1noc(-c2ccccc2Cl)n1 | 119 to 121
34 | CCOC(=O)C(=O)c1nc2ccccc2n1C | 116 to 118
35 | Nc1cnn(-c2ccccc2F)c1 | 59 to 61
36 | COCCS(=O)(=O)c1ccc(Cl)c(C(=O)O)c1Cl | 129 to 131
37 | CCOC(=O)CS(N)(=O)=O | 62 to 64
38 | O=C(O)CCS(=O)(=O)Nc1ccccc1 | 127 to 129
39 | COc1ccc(Nc2nc(C(=O)O)cs2)cc1 | 239 to 241
40 | CCNc1ccc(C)nn1 | 99 to 101
41 | CCOC(=O)c1cc(C)nc(-c2ccccc2)n1 | 94 to 96
42 | Nc1c(C(=O)O)ccnc1Cl | 249 to 251
43 | Cc1nc2ncnn2c(C)c1CC(=O)O | 220 to 222
44 | COCCNC(=O)Nc1ccc(N)cc1 | 135 to 137
45 | Cc1nn(C(C)(C)C)c(C)c1N | 54 to 56
46 | O=c1ccc2ccc(Cl)c(Cl)c2[nH]1 | 241 to 243
47 | Cc1ccc(S(N)(=O)=O)c(F)c1 | 138 to 140
48 | O=C(Nc1ccc(Br)cn1)C1CCCNC1 (stereo not drawn) | 169 to 171
49 | CNC(=O)c1ccc(CN)cc1 | 90 to 92
50 | COC(C)C(N)=S (stereo not drawn) | 58 to 60

Row | Structure (SMILES) | melting point [°C]
51 | N#Cc1cc2ccccc2[nH]c1=O | 327 to 329
52 | Cc1nn(C)c(C)c1CC(=O)O | 223 to 225
53 | O=C(O)c1ccc2c(c1)[nH]c(=O)n2C1CCCC1 | 315 to 317
54 | Cc1csc2nc(CO)cc(=O)n12 | 154 to 156
55 | Nc1ccc(Cl)c(C(=O)NC2CCCCC2)c1 | 159 to 161
56 | CC1C(=O)NC(=O)C1C (stereo not drawn) | 56 to 58
57 | Cc1sc(=O)[nH]c1C(C)C | 129 to 131
58 | O=C(CCl)Nc1ccc(N2CCCCC2)nc1 | 139 to 141
59 | CCOC(=O)c1ccc(-n2c(C)nc3ccccc3c2=O)cc1 | 173 to 175
60 | O=S(=O)(c1ccc(OCCBr)cc1)N1CCOCC1 | 137 to 138
61 | CCSc1ccc(Cl)cc1C(=O)O | 154 to 156
62 | Cc1c(S(=O)(=O)Cl)sc2cccc(F)c12 | 114 to 116
63 | CC1(C)CCC(C)(O)CC1 | 49 to 51
64 | O=C(O)c1ccnc(Br)c1[N+](=O)[O-] | 220 to 222
65 | Cc1ccc2c(CCl)cc(=O)oc2c1C | 174 to 176
66 | NC(=O)C1CCN(CC(=O)c2ccc(Cl)cc2)CC1 | 164 to 166
67 | COCCOc1ccc(C(F)(F)F)cc1NC(=O)C(C)Cl (stereo not drawn) | 59 to 61
68 | Cc1ccc(OCc2nc(CC(=O)O)cs2)cc1 | 145 to 147
69 | CCOC(=O)c1cc(C)nc2cc(C)nn12 | 81 to 83
70 | O=C1CCSc2ccc(Br)cc21 | 49 to 51
71 | CC(=O)Nc1ccc(C2NC(=O)NC2=O)cc1 (stereo not drawn) | 314 to 316
72 | CNC(=O)c1cc(OC)ccc1N | 119 to 121
73 | Nc1nnc(C=Cc2ccco2)s1 | 218 to 220
74 | CC(C)n1[nH]c(-c2ccc(F)cc2)cc1=O | 156 to 158
75 | O=C1CSC(NC2CCCC2)=N1 | 110 to 112

Row | Structure (SMILES) | melting point [°C]
76 | CN(C)c1ccc(C(=O)O)cn1 | 225 to 227
77 | Nc1cc(Br)c[nH]c1=S | 190 to 192
78 | COC(=O)c1ccc(CNc2ccc3c[nH]nc3c2)cc1 | 152 to 154
79 | COc1ccc(S(=O)(=O)NCC(=O)O)cc1 | 131 to 133
80 | O=c1[nH]c(CCl)nc2ccc(Cl)cc12 | 249 to 251
81 | Nc1ccc(SCc2cccnc2)cc1 | 125 to 127
82 | N#Cc1cccc(NCc2ccc(Cl)cc2)c1 | 84 to 86
83 | Cc1nn(C)c(Cl)c1C#N | 55 to 57
84 | O=C(O)c1ccc(N2CC=CC2)cc1 | 285 to 287
85 | O=C(c1cc(Cl)c(Cl)[nH]1)C(Cl)(Cl)Cl | 129 to 131
86 | Cc1nn(-c2ccccc2)c(C)c1CN | 77 to 79
87 | COc1ncc(Br)cn1 | 55 to 60
88 | CCOC(C)c1ncc[nH]1 (stereo not drawn) | 69 to 71
89 | N#CCn1cc(C(=O)O)c2ccccc21 | 199 to 201
90 | Nc1nc(C=Cc2ccccc2)cs1 | 147 to 149
91 | Cc1ccc(CNC(=O)CCl)cc1 | 117 to 119
92 | N#Cc1ccc(F)c(CBr)c1 | 44 to 46
93 | Nc1nc2ccccc2n1C1CCCCC1 | 206 to 208
94 | NNc1ccc(S(=O)(=O)NC2CC2)cn1 | 195 to 197
95 | CS(=O)(=O)NCCC1CCCCN1 (stereo not drawn) | 105 to 107
96 | CS(=O)(=O)c1ccc(F)c(S(C)(=O)=O)c1 | 196 to 198
97 | Cn1cc(CC(=O)O)c2ccccc21 | 126 to 128
98 | CNc1ccnc2ccncc12 | 223 to 225
99 | O=C(CCl)NCC1CCN(c2ccccc2)C1 (stereo not drawn) | 61 to 63
100 | Cc1ccc(S(=O)(=O)Cl)c([N+](=O)[O-])c1 | 97 to 99

Row | Structure (SMILES) | melting point [°C]
101 | [N-]=[N+]=Nc1cccc2cccnc12 | 42 to 44
102 | CCOC(=O)C(=O)c1nccn1C | 52 to 54
103 | COc1ccc2cc(C#N)ccc2c1 | 105 to 107
104 | O=C1CC(c2ccccc2)C(=O)O1 (stereo not drawn) | 51 to 55
105 | Cc1ccc(CNC(=O)n2ccnc2)cc1 | 132 to 134
106 | CCOC(=O)c1sc(-c2ccc(Cl)cc2)cc1N | 200 to 202
107 | CCCCC(Br)C(=O)Nc1cc(C)on1 (stereo not drawn) | 84 to 86
108 | Nc1ccc(S(=O)(=O)NC2CC2)cn1 | 169 to 171
109 | COCCN1C(=O)CC(=O)NC1=S | 148 to 150
110 | Nc1ncc(CCC(=O)O)s1 | 195 to 197
111 | O=C(c1cc2ccccc2o1)C1CC1 | 63 to 65
112 | COc1ccc(N)cc1NS(C)(=O)=O | 125 to 127
113 | COc1ccc(F)cc1CCl | 52 to 53
114 | O=C(O)CC1COC(=O)C1 (stereo not drawn) | 83 to 85
115 | O=S(=O)(Cl)c1cc2c(cc1Cl)OCCCO2 | 92 to 94
116 | Cc1noc(C=Cc2ccc(F)cc2)c1N | 167 to 169
117 | Cc1cc(NC(=O)C2CCCC2)sc1C(=O)O | 174 to 176
118 | NS(=O)(=O)c1ccc(N2CCOCC2)c(C(=O)O)c1 | 277 to 279
119 | COC(=O)c1cc(S(=O)(=O)Cl)cn1C | 78 to 80
120 | O=C(O)c1c[nH]nc1-c1ccc(F)c(Cl)c1 | 282 to 284
121 | Cc1occc1-c1nnc(S)n1N | 159 to 161
122 | NC(=O)C(O)C1CC1 (stereo not drawn) | 115 to 117
123 | COC(=O)c1ccncc1C(=O)O | 175 to 177
124 | CCN(Cc1ccccc1)c1ccc(C=O)cc1 | 38 to 42
125 | O=C(O)c1cn(Cc2ccccc2)nc1-c1ccccc1 | 189 to 191

Row | Structure (SMILES) | melting point [°C]
126 | NNC1=NC(=O)C(=O)N1 | 144 to 146
127 | CC(=O)Nc1cccc(CO)c1 | 113 to 115
128 | OC1CN(c2ccc(C(F)(F)F)cn2)C1 | 136 to 138
129 | COCc1cc(C(=O)O)ccc1F | 100 to 102
130 | COc1ccc2cc(C(C)Cl)ccc2c1 (stereo not drawn) | 82 to 84
131 | C=C(C#N)C(O)c1ccc([N+](=O)[O-])cc1 (stereo not drawn) | 64 to 66
132 | O=C1OC(=O)C(Cl)=C1Cl | 107 to 109
133 | NCC(=O)N1CCN(c2ccc(Cl)cc2)CC1 | 87 to 89
134 | Cc1ccc(-n2cc(C=O)c(C(C)(C)C)n2)cc1 | 79 to 81
135 | O=C(O)C1(c2ccccc2F)CC1 | 106 to 108
136 | O=C(O)Cc1ccc(S(=O)(=O)N2CCCCC2)s1 | 81 to 83
137 | CCCC(=O)N1CCCCC1C(=O)O (stereo not drawn) | 63 to 65
138 | CC(Cl)C(=O)c1ccc2c(c1)NC(=O)CO2 (stereo not drawn) | 186 to 188
139 | O=C(O)c1oc2ccccc2c1CSC1CCCCC1 | 158 to 160
140 | Cc1n[nH]c(C)c1C(C)C(=O)O (stereo not drawn) | 181 to 183
141 | CNS(=O)(=O)c1cc(/C=C/C(=O)O)ccc1OC | 238 to 240
142 | CCNC(=O)Nc1cccc(N)c1 | 122 to 124
143 | Cc1ccc(NC(=O)c2cccc(Cl)c2)c(C(=O)O)c1 | 191 to 193
144 | O=c1nc2ccccc2c(-c2ccccc2)[nH]1 | 254 to 256
145 | O=S(=O)(Cl)c1ccccc1-c1ccno1 | 74 to 76
146 | COc1cc(Br)cc(OC)c1O | 99 to 101
147 | CCOC(=O)COc1ccc(C#N)cc1OC | 69 to 71
148 | CC(C)N(C)S(=O)(=O)c1ccc(N)cc1 | 119 to 121
